# Experimental data taken from US5220018A, “Cholecystokinin antagonists” (Merck & Co., Inc., priority 1992, dated 1993).
# Where two headings read alike, the source gives them in different places.
# Legend:
# CCK Receptor (Pancreas) = molecular target: T1, CCK Receptor (Pancreas) (Rattus norvegicus, UniProt P30551); assay: biochemical; type: binding, Male Sprague-Dawley rats
# T1 construct: The whole pancreas was dissected free of fat tissue and was homogenized; from tissue; host or cells: rat whole pancreas, homogenate membranes
# T1 sequence (P30551 1-444): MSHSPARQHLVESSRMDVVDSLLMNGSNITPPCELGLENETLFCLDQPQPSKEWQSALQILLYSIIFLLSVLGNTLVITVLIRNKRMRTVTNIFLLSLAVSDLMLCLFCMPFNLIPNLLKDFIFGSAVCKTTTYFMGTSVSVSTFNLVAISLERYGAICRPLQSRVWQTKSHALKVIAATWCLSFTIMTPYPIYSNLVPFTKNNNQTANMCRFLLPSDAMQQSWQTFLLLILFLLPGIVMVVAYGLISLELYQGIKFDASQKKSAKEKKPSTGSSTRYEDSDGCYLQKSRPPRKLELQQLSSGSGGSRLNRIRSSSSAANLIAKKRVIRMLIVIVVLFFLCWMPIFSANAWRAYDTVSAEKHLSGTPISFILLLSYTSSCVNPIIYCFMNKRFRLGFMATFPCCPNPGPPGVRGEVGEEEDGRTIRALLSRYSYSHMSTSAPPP
# Protocol: 1. CCK Receptor Binding (Pancreas)
# CCK-8 sulphated was radiolabelled with ^125 I-Bolton Hunter reagent (2000 Ci/mmole). Receptor binding was performed according to Chang and Lotti (Proc. Natl. Acad. Sci. 83, 4923-4926, 1986) with minor modifications.
# Male Sprague-Dawley rats (150-200 g) were sacrificed by decapitation. The whole pancreas was dissected free of fat tissue and was homogenized in 25 volumes of ice-cold 10 mM Hepes buffer with 0.1% soya bean trypsin inhibitor (pH 7.4 at 25° C.) with a Kinematica Polytron. The homogenates were centrifuged at 47,800 g for 10 min. Pellets were resuspended in 10 volumes of binding assay buffer (20 mM Hepes, 1 mM EGTA, 5 mM MgCl2, 150 mM NaCl, bacitracin 0.25 mg/ml, soya bean trypsin inhibitor 0.1 mg/ml, and bovine serum albumin 2 mg/ml, pH 6.5 at 25° C.) using a teflon homogenizer, 15 strokes at 500 rpm. The homogenate was further diluted in binding assay buffer to give a final concentration of 0.5 mg original wet weight/1 ml buffer. […] All assays were run in duplicate. The reaction mixtures were incubated at 25° C. for 2 hours and the reaction terminated by rapid filtration (Brandell 24 well cell harvester) over Whatman GF/C filters, washing 3×4 mls with ice-cold 100 mM NaCl. The radioactivity on the filters was counted with a LKB gamma counter.
# (§1) Drug displacement studies were performed with at least 10 concentrations of compounds of formula 1 and the IC50 values were determined by regression analysis.
# CCK Receptor (Brain) = molecular target: T2, CCK Receptor (Brain) (Cavia porcellus, UniProt H0VZC5); assay: CCK Receptor Binding (Brain), inhibition of 125I-CCK-8 binding; design: species or system Male Hartley guinea pigs
# T2 construct: the cortex was removed and homogenized in 25 mL ice-cold 0.32M sucrose; from tissue; host or cells: guinea pig cerebral cortex, P2 membrane pellet
# T2 sequence (H0VZC5 1-426): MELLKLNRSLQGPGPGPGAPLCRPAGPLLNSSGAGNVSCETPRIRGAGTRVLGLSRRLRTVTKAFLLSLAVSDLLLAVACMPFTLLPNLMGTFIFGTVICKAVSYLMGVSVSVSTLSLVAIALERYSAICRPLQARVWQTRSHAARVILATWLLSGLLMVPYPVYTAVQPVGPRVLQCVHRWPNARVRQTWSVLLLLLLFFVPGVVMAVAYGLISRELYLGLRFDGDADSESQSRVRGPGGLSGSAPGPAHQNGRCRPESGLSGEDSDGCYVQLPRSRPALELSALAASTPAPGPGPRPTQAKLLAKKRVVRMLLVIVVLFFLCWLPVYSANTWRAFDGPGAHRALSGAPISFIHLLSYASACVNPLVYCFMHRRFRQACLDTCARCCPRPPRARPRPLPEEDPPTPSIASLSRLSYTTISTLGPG
# Protocol: 2. CCK Receptor Binding (Brain)
# CCK-8 sulphated was radiolabelled and the binding was performed according to the description for the pancreas method with minor modifications.
# Male Hartley guinea pigs (300-500 g) were sacrificed by decapitation and the cortex was removed and homogenized in 25 mL ice-cold 0.32M sucrose. The homogenates were centrifuged at 1000 g for 10 minutes and the resulting supernatant was recentrifuged at 20,000 g for 20 minutes. […] All assays were run in duplicate. The reaction mixtures were incubated at 25° C. for 2 hours and then the reaction was terminated on Whatman GF/C filters by rapid filtration (Brandell 24 well cell Harvester) with 3×5 ml washes of cold 100 mM NaCl. The radioactivity on the filters was then counted with a LKB gamma counter.
# as §1
# [1] = rat pancreas membranes, 125I-CCK-8 50 pM, 25° C., 2 hours, read-out: IC50, 125I-CCK Pancreas
# [2] = guinea pig cortex membranes, 125I-CCK-8 50 pM, 25° C., 2 hours, read-out: IC50, 125I-CCK Brain
Compound,IC50 (CCK Receptor (Pancreas); [1]),IC50 (CCK Receptor (Brain); [2]),IC50 (CCK Receptor (Pancreas)),IC50 (CCK Receptor (Brain))
"O=C(Nc1cccc(-c2nnn[nH]2)c1)N[C@@H]1N=C(c2ccccc2)c2ccccc2N(CC2CC2)C1=O [Example 20, N-{1,3-Dihydro-1-cyclopropylmethyl-2-oxo-5-phenyl-1H-1,4-benzodiazepin-3-yl}-N'-{[3-(1H-tetrazol-5-yl)phenyl]urea}]",870000 nM,0.4 nM,–,–
"CC(=O)NS(=O)(=O)c1cccc(NC(=O)N[C@@H]2N=C(c3ccccc3)c3ccccc3N(CC3CC3)C2=O)c1 [Example 27, N-{1,3-Dihydro-1-cyclopropylmethyl-2-oxo-5-phenyl-1H-1,4-benzodiazepin-3-yl}-N'-{[3-(N-(acetyl)sulfonamido)phenyl]urea}]",4600 nM,0.55 nM,–,–
"CN1C(=O)[C@H](NC(=O)Nc2cccc(S(=O)(=O)NC(=O)C3CC3(C)C)c2)N=C(c2ccccc2)c2ccccc21 (stereo partly shown) [Example 29, N-{1,3-Dihydro-1-methyl-2-oxo-5-phenyl-1H-1,4-benzodiazepin-3-yl}-N'-{[3-(N-(2,2-dimethylcyclopropylcarbonyl)sulfonamido)phenyl]urea}]",> 3000 nM,11 nM,–,–
"CN1C(=O)[C@H](NC(=O)Nc2cccc(-c3nnn(C)n3)c2)N=C(c2ccccc2)c2ccccc21 [Example 33, N-{1,3-Dihydro-1-methyl-2-oxo-5-phenyl-1H-1,4-benzodiazepin-3-yl}-N'-{[3-(2-methyltetrazol-5-yl)phenyl]urea}]",–,21 nM,1600 nM,–
"CN1C(=O)[C@H](NC(=O)Nc2cccc(NS(N)(=O)=O)c2)N=C(c2ccccc2)c2ccccc21 [Example 12, N-{1,3-Dihydro-1-methyl-2-oxo-5-phenyl-1H-1,4-benzodiazepin-3-yl}-N'-{[3-(aminosulfonamido)phenyl]urea}]",530 nM,32 nM,–,–
"CC[C@H](C)CN1C(=O)[C@H](NC(=O)Nc2cccc(-c3nnn[nH]3)c2)N=C(c2ccccc2)c2ccccc21 [Example 19, N-{1,3-Dihydro-1-[2-(S)-methylbutyl]-2-oxo-5-phenyl-1H-1,4-benzodiazepin-3-yl}-N'-{[3-(1H-tetrazol-5-yl)phenyl]urea}]",500 nM,0.25 nM,–,–
"CC(=O)NS(=O)(=O)c1cccc(NC(=O)N[C@@H]2N=C(c3ccccc3)c3ccccc3N(C)C2=O)c1 [Example 16, N-{1,3-Dihydro-1-methyl-2-oxo-5-phenyl-1H-1,4-benzodiazepin-3-yl}-N'-{[3-(acetylaminosulfonyl)phenyl]urea}]",> 3000 nM,3.9 nM,–,–
"CC(=O)NC(=O)c1cccc(NC(=O)N[C@@H]2N=C(c3ccccc3)c3ccccc3N(C)C2=O)c1 [Example 22, N-{1,3-Dihydro-1-methyl-2-oxo-5-phenyl-1H-1,4-benzodiazepin-3-yl}-N'-{[3-(N-acetylcarboxamido)phenyl]urea}]",3800 nM,55 nM,–,–
"CN1C(=O)[C@H](NC(=O)Nc2cccc(S(N)(=O)=O)c2)N=C(c2ccccc2)c2ccccc21 [Example 14, N-{1,3-Dihydro-1-methyl-2-oxo-5-phenyl-1H-1,4-benzodiazepin-3-yl}-N'-{[3-(aminosulfonyl)phenyl]urea}]",4400 nM,74 nM,–,–
"CN1C(=O)[C@H](NC(=O)Nc2cccc(S(=O)(=O)NP(=O)(Oc3ccccc3)Oc3ccccc3)c2)N=C(c2ccccc2)c2ccccc21 [Example 31, N-{1,3-Dihydro-1-methyl-2-oxo-5-phenyl-1H-1,4-benzodiazepin-3-yl}-N'-{[3-(N-(diphenylphosphono)sulfonamido)phenyl]urea}]",–,–,> 3000 nM,15 nM
"CC(C)CN1C(=O)C(NC(=O)Nc2cccc(-c3nnn[nH]3)c2)N=C(c2ccccc2F)c2ccccc21 (racemic) [Example 21, N-[3(R,S)-2,3-Dihydro-5-(2-fluorophenyl)-1-(2-methylpropyl)-2-oxo-1H-1,4-benzodiazepin-3-yl]-N'-{[3-(tetrazol-5-yl)phenyl]urea}]",150 nM,1.4 nM,–,–
"CC(C)N1C(=O)C(NC(=O)Nc2cccc(-c3nnn[nH]3)c2)N=C(c2ccccc2)c2ccccc21 (stereo not shown) [Example 4, N-{1,3-Dihydro-1-[2-propyl]-2-oxo-5-phenyl-1H-1,4-benzodiazepin-3-yl}-N'-{[3-(1H-tetrazol-5-yl)phenyl]urea}]",200 nM,4.1 nM,–,–
"CN1C(=O)[C@H](NC(=O)Nc2cccc(-c3noc(=O)[nH]3)c2)N=C(c2ccccc2)c2ccccc21 [Example 34, N-{1,3-Dihydro-1-methyl-2-oxo-5-phenyl-1H-1,4-benzodiazepin-3-yl}-N'-{[3-(1,2,4-oxadiazol-5-one)phenyl]urea}]",1100 nM,0.19 nM,–,–
"CC(=O)c1cccc(NC(=O)N[C@@H]2N=C(c3ccccc3)c3ccccc3N(C)C2=O)c1 [Example 8, N-{1,3-Dihydro-1-methyl-2-oxo-5-phenyl-1H-1,4-benzodiazepin-3-yl}-N'-{[3-(acetyl)phenyl]urea}]",1200 nM,3.6 nM,–,–
"CN1C(=O)[C@H](NC(=O)Nc2cccc(C(=O)NS(=O)(=O)C(C)(C)C)c2)N=C(c2ccccc2)c2ccccc21 [Example 25, N-{1,3-Dihydro-1-methyl-2-oxo-5-phenyl-1H-1,4-benzodiazepin-3-yl}-N'-{[3-(N-(t-butylsulfonyl)carboxamido)phenyl]urea}]",> 3000 nM,0.38 nM,–,–
"CCN1C(=O)C(NC(=O)Nc2cccc(-c3nnn[nH]3)c2)N=C(c2ccccc2)c2ccccc21 (stereo not shown) [Example 3, N-{1,3-Dihydro-1-ethyl-2-oxo-5-phenyl-1H-1,4-benzodiazepin-3-yl}-N'-{[3-(1H-tetrazol-5-yl)phenyl]urea}]",–,1.6 nM,29 nM,–
"O=C(Nc1cccc(-c2noc(=O)[nH]2)c1)N[C@@H]1N=C(c2ccccc2)c2ccccc2N(CC2CC2)C1=O [Example 35, N-{1,3-Dihydro-1-cyclopropylmethyl-2-oxo-5-phenyl-1H-1,4-benzodiazepin-3-yl}-N'-{[3-(1,2,4-oxadiazol-5-one)phenyl]urea}]",190 nM,0.09 nM,–,–
"CC(C)NC(=O)NC(=O)c1cccc(NC(=O)N[C@@H]2N=C(c3ccccc3)c3ccccc3N(C)C2=O)c1 [Example 26, N-{1,3-Dihydro-1-methyl-2-oxo-5-phenyl-1H-1,4-benzodiazepin-3-yl}-N'-{[3-(N-(2-propylaminocarbonyl)carboxamido)phenyl]urea}]",> 3000 nM,410 nM,–,–
"CN1C(=O)[C@H](NC(=O)Nc2cccc(N)c2)N=C(c2ccccc2)c2ccccc21 [Example 9, N-{1,3-Dihydro-1-methyl-2-oxo-5-phenyl-1H-1,4-benzodiazepin-3-yl}-N'-{[3-(amino)phenyl]urea}]",> 3000 nM,33 nM,–,–
"CN1C(=O)[C@H](NC(=O)Nc2cccc(C(N)=O)c2)N=C(c2ccccc2)c2ccccc21 [Example 10, N-{1,3-Dihydro-1-methyl-2-oxo-5-phenyl-1H-1,4-benzodiazepin-3-yl}-N'-{[3-(aminocarbonyl)phenyl]urea}]",1360 nM,28 nM,–,–
